Experimental data published in US20130035326A1 (AMBIT BIOSCIENCES CORPORATION, priority 2009, published 2013).

Assays:
MV4-11 cells = assay: MV4-11 cell proliferation assay (Alamar Blue); format: cell-based; details: Homo sapiens, MV4-11, 72 h, 3 days incubation
Procedure: The compounds disclosed herein were tested in an MV4-11 cell proliferation assay to determine their cellular potency against Flt3. MV4-11 cells carry ITD mutation within juxtamembrane domain of Flt3 kinase which renders the kinase constitutively active. […] This assay measures the potency of compounds as Flt3 inhibitors by measuring the reduction of Alamar Blue reagent by viable cells.
MV4-11 cells were grown in an incubator at 37° C. under 5% CO2 in Iscove's media (Celgro) with 10% FBS. The cell density was kept between 1e5 and 8e5 cells/mL.
On day one of the experiment, cells were harvested and spun at 500 g for 5 min at 4° C., the supernatant aspirated and the cells resuspended in Iscove's media with 0.5% FBS. Cell density was maintained at 7.5e5 to achieve maximum viability of the cells. The resuspended cells were incubated at 37° C. in 5% CO2 overnight.
On day two of the experiment, cells were diluted to 6.4e5/mL with Iscove's media with 0.5% FBS. 100 μL of the cell suspension (64,000 cells) were aliquoted into each well of a 96-well TC-treated plate. Compounds were added at 9 different concentrations, with half-log intervals alongside a control reference compound serving as a positive control. Final DMSO concentration was kept at 0.5% and final volume at 200 μL. The cells were then incubated at 37° C. under 5% CO2 for 3 days.
On day five of the experiment, 40 μL of Alamar Blue reagent was added to each well and the mixture was allowed to incubate for 3 hours. Alamar Blue fluorescence was measured using SoftMax Pro software at 560 nm (excitation) and 590 nm (emission). IC50s were generated as an average of duplicates and represents the concentration of test compound that achieves 50% inhibition of cellular proliferation compared to negative control.

CSF-1R kinase = molecular target: T1, CSF-1R kinase (Homo sapiens, UniProt P07333); assay: Competition binding assay, CSF-1R Kd
T1 construct: made in house; host or cells: T7 phage display or HEK-293 cells
Procedure: (§1) In certain embodiments, competition binding assays were performed as described in Fabian et al., Nature Biotechnology 2005, 23,329-336.
(§2) Competition binding assays used herein were developed, validated and performed as described in Fabian et al., Nature Biotechnology 2005, 23,329-336. Kinases were produced as fusions to T7 phage (See, Fabian et al. or WO04/015142) or alternatively, the kinases were expressed in HEK-293 cells and subsequently tagged with DNA for PCR detection (See, WO08/005,310). For the binding assays, streptavidin-coated magnetic beads were treated with biotinylated affinity ligands for 30 min at room temperature to generate affinity resins. The liganded beads were blocked with excess biotin and washed with blocking buffer (SeaBlock (Pierce), 1% BSA, 0.05% Tween 20, 1 mM DTT) to remove unbound ligand and to reduce non-specific binding. Binding reactions were assembled by combining kinase, liganded affinity beads, and test compounds in 1× binding buffer (20% SeaBlock, 0.17×PBS, 0.05% Tween 20, 6 mM DTT). Test compounds were prepared as 100× stocks in DMSO and diluted into the aqueous environment. Kds were determined using an eleven point threefold serial dilutions. DMSO or control compounds were was added to control assays lacking a test compound. Primary screen assays were performed in polypropylene 384-well plates in a final volume of 20-40 μL, while Kd determinations were performed in polystyrene 96-well plates in a final volume of 135 μL. The assay plates were incubated at room temperature with shaking for 1 hour to allow the binding reactions to reach equilibrium, and the affinity beads were washed extensively with wash buffer (1×PBS, 0.05% Tween 20) to remove unbound protein. The beads were then resuspended in elution buffer (1×PBS, 0.05% Tween 20, 0.5 μM non-biotinylated affinity ligand) and incubated at room temperature with shaking for 30 min. The kinase concentration in the eluates was measured by quantitative PCR.

KIT kinase = molecular target: T2, KIT kinase (Homo sapiens, UniProt P10721); assay: Competition binding assay, KIT Kd
T2 construct: made in house; host or cells: T7 phage display or HEK-293 cells
Procedure: as §1, §2

FLT3 kinase = molecular target: T3, FLT3 kinase (Homo sapiens, UniProt P36888); assay: Competition binding assay, FLT3 Kd
T3 construct: made in house; host or cells: T7 phage display or HEK-293 cells
T3 sequence (P36888 27-993): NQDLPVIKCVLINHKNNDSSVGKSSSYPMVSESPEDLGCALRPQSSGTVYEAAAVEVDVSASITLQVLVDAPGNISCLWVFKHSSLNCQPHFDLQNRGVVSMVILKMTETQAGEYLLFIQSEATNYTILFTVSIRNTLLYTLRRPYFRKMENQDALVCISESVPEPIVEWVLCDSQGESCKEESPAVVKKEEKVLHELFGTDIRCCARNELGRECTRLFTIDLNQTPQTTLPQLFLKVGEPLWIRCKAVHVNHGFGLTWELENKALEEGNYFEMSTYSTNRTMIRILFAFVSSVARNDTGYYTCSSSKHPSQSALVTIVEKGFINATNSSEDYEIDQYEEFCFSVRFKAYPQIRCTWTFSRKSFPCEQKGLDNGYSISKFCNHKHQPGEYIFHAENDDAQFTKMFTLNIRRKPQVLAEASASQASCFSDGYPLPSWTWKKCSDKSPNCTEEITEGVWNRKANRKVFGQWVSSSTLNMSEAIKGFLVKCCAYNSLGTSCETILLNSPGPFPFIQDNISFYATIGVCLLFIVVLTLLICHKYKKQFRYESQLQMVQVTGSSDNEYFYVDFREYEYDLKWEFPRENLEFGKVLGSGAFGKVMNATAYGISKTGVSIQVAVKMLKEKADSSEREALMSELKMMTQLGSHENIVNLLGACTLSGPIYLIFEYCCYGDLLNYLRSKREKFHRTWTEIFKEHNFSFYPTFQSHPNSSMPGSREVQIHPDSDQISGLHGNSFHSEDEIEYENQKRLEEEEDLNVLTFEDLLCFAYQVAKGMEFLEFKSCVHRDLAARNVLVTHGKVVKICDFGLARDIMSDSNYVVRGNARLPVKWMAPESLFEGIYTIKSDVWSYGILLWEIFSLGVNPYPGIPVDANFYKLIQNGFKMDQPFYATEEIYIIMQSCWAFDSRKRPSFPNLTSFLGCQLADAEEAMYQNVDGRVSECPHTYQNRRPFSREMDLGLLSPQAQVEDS
Procedure: as §1, §2

T2 sequence (P10721 26-976): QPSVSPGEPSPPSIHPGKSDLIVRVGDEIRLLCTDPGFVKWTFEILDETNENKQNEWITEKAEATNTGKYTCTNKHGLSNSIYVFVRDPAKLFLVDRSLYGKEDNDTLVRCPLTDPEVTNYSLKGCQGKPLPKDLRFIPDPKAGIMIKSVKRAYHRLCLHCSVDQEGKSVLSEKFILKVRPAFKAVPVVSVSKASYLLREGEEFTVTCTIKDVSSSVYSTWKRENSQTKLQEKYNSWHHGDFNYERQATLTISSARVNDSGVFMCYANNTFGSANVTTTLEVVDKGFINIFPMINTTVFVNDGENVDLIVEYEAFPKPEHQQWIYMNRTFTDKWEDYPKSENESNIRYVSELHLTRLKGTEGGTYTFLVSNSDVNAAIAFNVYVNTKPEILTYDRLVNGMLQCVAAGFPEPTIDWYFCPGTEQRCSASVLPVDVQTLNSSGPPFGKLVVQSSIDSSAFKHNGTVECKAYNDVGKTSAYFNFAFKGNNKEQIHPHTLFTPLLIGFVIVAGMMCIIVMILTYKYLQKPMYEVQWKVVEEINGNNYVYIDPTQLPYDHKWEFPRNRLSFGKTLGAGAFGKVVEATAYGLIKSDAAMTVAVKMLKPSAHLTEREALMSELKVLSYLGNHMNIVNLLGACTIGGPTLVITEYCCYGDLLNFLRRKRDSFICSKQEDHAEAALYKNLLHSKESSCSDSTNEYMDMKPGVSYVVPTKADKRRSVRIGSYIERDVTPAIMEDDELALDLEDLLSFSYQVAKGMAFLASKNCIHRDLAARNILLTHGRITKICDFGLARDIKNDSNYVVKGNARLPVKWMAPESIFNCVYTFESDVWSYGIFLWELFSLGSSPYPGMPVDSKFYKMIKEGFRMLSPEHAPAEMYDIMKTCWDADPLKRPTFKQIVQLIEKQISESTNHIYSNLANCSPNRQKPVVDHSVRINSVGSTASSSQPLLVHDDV
T1 sequence (P07333 20-972): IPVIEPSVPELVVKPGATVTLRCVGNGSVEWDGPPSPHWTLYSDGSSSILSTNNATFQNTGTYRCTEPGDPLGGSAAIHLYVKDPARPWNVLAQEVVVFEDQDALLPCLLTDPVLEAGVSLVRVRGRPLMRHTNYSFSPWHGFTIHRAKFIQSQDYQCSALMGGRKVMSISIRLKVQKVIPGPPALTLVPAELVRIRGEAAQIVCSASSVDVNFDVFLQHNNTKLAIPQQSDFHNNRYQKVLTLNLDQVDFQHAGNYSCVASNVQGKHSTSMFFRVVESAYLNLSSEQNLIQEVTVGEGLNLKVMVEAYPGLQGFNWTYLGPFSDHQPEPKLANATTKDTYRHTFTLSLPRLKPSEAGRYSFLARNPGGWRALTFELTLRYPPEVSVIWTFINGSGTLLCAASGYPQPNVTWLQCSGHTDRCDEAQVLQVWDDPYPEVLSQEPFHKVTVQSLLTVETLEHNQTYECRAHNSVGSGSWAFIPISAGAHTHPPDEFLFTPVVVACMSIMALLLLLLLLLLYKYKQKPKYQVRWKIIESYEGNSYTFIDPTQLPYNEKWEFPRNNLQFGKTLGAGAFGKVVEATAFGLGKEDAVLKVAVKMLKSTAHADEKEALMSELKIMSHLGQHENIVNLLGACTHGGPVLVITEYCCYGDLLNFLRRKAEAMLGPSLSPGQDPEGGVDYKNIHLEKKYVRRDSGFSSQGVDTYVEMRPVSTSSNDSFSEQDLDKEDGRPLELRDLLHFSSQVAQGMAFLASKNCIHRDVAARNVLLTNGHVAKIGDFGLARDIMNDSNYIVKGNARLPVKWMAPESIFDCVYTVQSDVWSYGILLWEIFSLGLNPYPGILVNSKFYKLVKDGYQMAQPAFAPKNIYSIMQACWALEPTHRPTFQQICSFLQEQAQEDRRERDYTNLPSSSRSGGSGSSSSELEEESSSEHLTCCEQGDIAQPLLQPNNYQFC

Row | SMILES | IC50 (MV4-11 cells) | Kd (CSF-1R kinase) | Kd (KIT kinase) | Kd (FLT3 kinase)
1 | CC(C)(F)c1cc(NC(=O)Nc2ccc(-c3ccc(N)nc3)cn2)on1 [Example 42, 1-(6′-amino-3,3′-bipyridin-6-yl)-3-(3-(2-fluoropropan-2-yl)isoxazol-5-yl)urea] | 10 to 100 nM | ≤ 10 nM | ≤ 1 nM | 1 to 10 nM
2 | CC(C)(c1cc(NC(=O)Nc2ccc(-c3ccc(N)nc3)cn2)no1)C(F)(F)F [Example 43, 1-(6′-amino-3,3′-bipyridin-6-yl)-3-(5-(1,1,1-trifluoro-2-methylpropan-2-yl)isoxazol-3-yl)urea] | 1 to 10 nM | ≤ 10 nM | ≤ 1 nM | ≤ 1 nM
3 | COc1cc(-c2ccc(N)nc2)ccc1NC(=O)Nc1cc(C(C)(CF)CF)on1 [Example 68, 5-(4-(3-(5-(1,3-difluoro-2-methylpropan-2-yl)isoxazol-3-yl)ureido)-3-methoxyphenyl)pyridin-2-aminium methanesulfonate] | 10 to 100 nM | ≤ 10 nM | 1 to 10 nM | 1 to 10 nM
4 | COc1cc(-c2ccc(N)nc2)ccc1NC(=O)Nc1cc(C(C)(C)C)on1 [Example 69, 5-(4-(3-(5-tert-butylisoxazol-3-yl)ureido)-3-methoxyphenyl)pyridin-2-aminium methanesulfonate] | 10 to 100 nM | ≤ 10 nM | ≤ 1 nM | 1 to 10 nM
5 | CC(C)(C)c1cc(NC(=O)Nc2ccc(-c3ccc(N)nc3)cc2)on1 [Example 70, 5-(4-(3-(3-tert-butylisoxazol-5-yl)ureido)phenyl)pyridin-2-aminium methanesulfonate] | ≤ 1 nM | ≤ 10 nM | 1 to 10 nM | 1 to 10 nM
6 | CC(C)(c1cc(NC(=O)Cc2ccc(-c3ccc(N)nc3)cc2)no1)C(F)(F)F [Example 72, 5-(4-(2-oxo-2-(5-(1,1,1-trifluoro-2-methylpropan-2-yl)isoxazol-3-ylamino)ethyl)phenyl)pyridin-2-aminium acetate] | ≤ 1 nM | ≤ 10 nM | 1 to 10 nM | ≤ 1 nM
7 | CC(C)(C)c1cc(NC(=O)Cc2ccc(-c3cnc(N)nc3)cc2)no1 [Example 74, 2-(4-(2-aminopyrimidin-5-yl)phenyl)-N-(5-tert-butylisoxazol-3-yl)acetamide] | ≤ 1 nM | ≤ 10 nM | 1 to 10 nM | ≤ 1 nM
8 | CC(C)(C)c1cc(NC(=O)Cc2ccc(-c3cnc(NCCN4CCOCC4)nc3)cc2)no1 [Example 75, N-(5-tert-butylisoxazol-3-yl)-2-(4-(2-(2-morpholinoethylamino)pyrimidin-5-yl)phenyl)acetamide] | ≤ 1 nM | ≤ 10 nM | 1 to 10 nM | ≤ 1 nM
9 | CC(C)(C)c1cc(NC(=O)Cc2ccc(-c3ccc(N)nc3)cn2)no1 [Example 76, 2-(6′-amino-3,3′-bipyridin-6-yl)-N-(5-tert-butylisoxazol-3-yl)acetamide] | 1 to 10 nM | ≤ 10 nM | ≤ 1 nM | ≤ 1 nM
10 | CC(C)(C)c1cc(NC(=O)Cc2ccc(-c3cnc(N)nc3)cn2)no1 [Example 77, 2-(5-(2-aminopyrimidin-5-yl)pyridin-2-yl)-N-(5-tert-butylisoxazol-3-yl)acetamide] | 1 to 10 nM | ≤ 10 nM | 1 to 10 nM | ≤ 1 nM
11 | CC(C)(C)c1cc(NC(=O)Cc2ccc(-c3cnc(N)nc3)cc2F)no1 [Example 79, 2-(4-(2-aminopyrimidin-5-yl)-2-fluorophenyl)-N-(5-tert-butylisoxazol-3-yl)acetamide] | ≤ 1 nM | ≤ 10 nM | 1 to 10 nM | ≤ 1 nM
12 | CC(C)(CO)c1cc(NC(=O)Nc2ccc(-c3ccc(N)nc3)cc2)no1 [Example 80, 1-(4-(6-aminopyridin-3-yl)phenyl)-3-(5-(1-hydroxy-2-methylpropan-2-yl)isoxazol-3-yl)urea] | 1 to 10 nM | ≤ 10 nM | ≤ 1 nM | ≤ 1 nM
13 | CC(C)(CO)c1cc(NC(=O)Nc2ccc(-c3ccc(N)nc3)cc2)on1 [Example 81, 5-(4-(3-(3-(1-hydroxy-2-methylpropan-2-yl)isoxazol-5-yl)ureido)phenyl)pyridin-2-aminium methanesulfonate] | 10 to 100 nM | ≤ 10 nM | 1 to 10 nM | 1 to 10 nM
14 | Cn1nc(C(C)(C)CO)cc1NC(=O)Nc1ccc(-c2ccc(N)nc2)cc1 [Example 82, 5-(4-(3-(3-(1-hydroxy-2-methylpropan-2-yl)-1-methyl-1H-pyrazol-5-yl)ureido)phenyl)pyridin-2-aminium methanesulfonate] | 100 to 500 nM | 10 to 100 nM | 1 to 10 nM | 1 to 10 nM
15 | CC(C)(CO)c1cc(NC(=O)Cc2ccc(-c3ccc(N)nc3)cc2)on1 [Example 83, 5-(4-(2-((3-(1-hydroxy-2-methylpropan-2-yl)isoxazol-5-yl)amino)-2-oxoethyl)phenyl)pyridin-2-aminium methanesulfonate] | 10 to 100 nM | ≤ 10 nM | 1 to 10 nM | ≤ 1 nM
16 | CC(C)(C)c1cc(NC(=O)Cc2ccc(-c3ccc(N)nc3)cc2)on1 [Example 84, 5-(4-(2-(3-tert-butylisoxazol-5-ylamino)-2-oxoethyl)phenyl)pyridin-2-aminium methanesulfonate] | ≤ 1 nM | ≤ 10 nM | 1 to 10 nM | ≤ 1 nM
17 | Cc1cc(-c2ccc(CC(=O)Nc3cc(C(C)(C)C)on3)cc2)cnc1N [Example 85, 5-(4-(2-(5-tert-butylisoxazol-3-ylamino)-2-oxoethyl)phenyl)-3-methylpyridin-2-aminium methanesulfonate] | ≤ 1 nM | ≤ 10 nM | 1 to 10 nM | ≤ 1 nM
18 | Cc1cc(N)ncc1-c1ccc(CC(=O)Nc2cc(C(C)(C)C)on2)cc1 [Example 86, 5-(4-(2-(5-tert-butylisoxazol-3-ylamino)-2-oxoethyl)phenyl)-4-methylpyridin-2-aminium methanesulfonate] | 10 to 100 nM | 10 to 100 nM | 1 to 10 nM | ≤ 1 nM
